Experimental data taken from patent US20170349593A1, “BTK INHIBITORS” (MERCK SHARP & DOHME CORP., priority 2014, published 2017).

How the values were obtained:
[1] = tested on: adenosine uptake into HeLa cells; experiment: [3H]Adenosine uptake assay; type: cell-based; conditions: Homo sapiens; accumulation of [3H]adenosine into HeLa cells; concentration range 10 μM to 0.032 nM; read-out: ADU inhibition IC50
In short: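 HeLa cells (25 000/well), plated overnight, were preincubated 30 minutes at ambient temperature with compound in HBSS + 5% FBS. Ten-point titrations ran from 10 μM to 0.032 nM final. [3H]adenosine was added from a 500 nM solution for 60 minutes, and uptake was measured by scintillation proximity counting; IC50 came from a 4-parameter fit.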

[2] = molecular target: T1, BTK enzyme (recombinant full-length BTK, hBTK) (Homo sapiens, UniProt Q06187); experiment: Btk enzyme activity assay (LANCE TR-FRET); type: biochemical; conditions: 50 pM hBTK, 25 μM ATP, 60 minute compound and enzyme incubation, concentration range 1 μM to 0.017 nM, read-out: BTK binding IC50
T1 construct: recombinant protein from baculovirus-transfected S 19 cells: full-length BTK, 6 HIS-tag cleaved; 6 HIS-tag (cleaved yes); made in house
T1 sequence (Q06187 whole entry): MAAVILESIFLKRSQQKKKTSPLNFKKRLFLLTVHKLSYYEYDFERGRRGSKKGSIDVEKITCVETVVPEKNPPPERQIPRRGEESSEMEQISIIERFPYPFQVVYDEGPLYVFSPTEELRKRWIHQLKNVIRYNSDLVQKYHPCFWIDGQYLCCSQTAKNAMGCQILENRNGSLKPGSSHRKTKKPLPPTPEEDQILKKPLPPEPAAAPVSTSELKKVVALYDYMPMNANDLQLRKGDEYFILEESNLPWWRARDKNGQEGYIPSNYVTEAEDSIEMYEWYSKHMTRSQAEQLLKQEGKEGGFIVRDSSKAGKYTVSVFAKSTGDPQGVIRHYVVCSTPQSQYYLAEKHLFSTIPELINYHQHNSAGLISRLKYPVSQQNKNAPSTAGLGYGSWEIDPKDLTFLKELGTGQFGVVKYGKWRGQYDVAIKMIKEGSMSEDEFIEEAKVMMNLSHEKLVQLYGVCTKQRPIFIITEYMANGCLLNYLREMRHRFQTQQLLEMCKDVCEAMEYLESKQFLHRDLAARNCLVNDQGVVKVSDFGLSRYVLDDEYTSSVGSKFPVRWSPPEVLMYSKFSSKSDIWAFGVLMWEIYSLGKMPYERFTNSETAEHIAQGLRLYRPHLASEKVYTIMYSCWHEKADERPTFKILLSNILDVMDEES

Compound | IC50 [1] [nM] | IC50 [2] [nM]
Nc1nccn2c([C@H]3CN(C4COC4)[C@H](CO)CO3)nc(-c3ccc(C(=O)Nc4cc(C(F)(F)F)ccn4)cc3F)c12 [Example 66, 4-{8-amino-3-[(2R,5R)-5-(hydroxymethyl)-4-oxetan-3-ylmorpholin-2-yl]imidazo[1,5-a]pyrazin-1-yl}-3-fluoro-N-[4-(trifluoromethyl)pyridin-2-yl]benzamide] | 24.6 | 1.23
Nc1nccn2c([C@H]3CN[C@H](CO)CO3)nc(-c3ccc(C(=O)Nc4cc(C(F)(F)F)ccn4)cc3F)c12 [Example 67, 4-{8-amino-3-[(2R,5R)-5-(hydroxymethyl)morpholin-2-yl]imidazo[1,5-a]pyrazin-1-yl}-3-fluoro-N-[4-(trifluoromethyl)pyridin-2-yl]benzamide] | 129 | 1.97
C[C@H](O)C(=O)N1C[C@H](c2nc(-c3ccc(C(=O)Nc4cc(C(F)(F)F)ccn4)cc3F)c3c(N)nccn23)OC[C@H]1C [Example 68, 4-(8-amino-3-{(2R,5R)-4-[(2S)-2-hydroxypropanoyl]-5-methylmorpholin-2-yl}imidazo[1,5-a]pyrazin-1-yl)-3-fluoro-N-[4-(trifluoromethyl)pyridin-2-yl]benzamide] | 76.6 | 3.02
COCC(=O)N1C[C@H](c2nc(-c3ccc(C(=O)Nc4cc(C(F)(F)F)ccn4)cc3F)c3c(N)nccn23)OC[C@H]1C [Example 70, 4-{8-amino-3-[(2R,5R)-4-(methoxyacetyl)-5-methylmorpholin-2-yl]imidazo[1,5-a]pyrazin-1-yl}-3-fluoro-N-[4-(trifluoromethyl)pyridin-2-yl]benzamide] | 135 | 13.8
CC(=O)N1C[C@H](c2nc(-c3ccc(C(=O)Nc4cc(C(F)(F)F)ccn4)cc3F)c3c(N)nccn23)OC[C@H]1C [Example 71, 4-{3-[(2R,5R)-4-acetyl-5-methylmorpholin-2-yl]-8-aminoimidazo[1,5-a]pyrazin-1-yl}-3-fluoro-N-[4-(trifluoromethyl)pyridin-2-yl]benzamide] | 110 | 6.63
C[C@@H]1CO[C@@H](c2nc(-c3ccc(C(=O)Nc4cc(C(F)(F)F)ccn4)cc3F)c3c(N)nccn23)CN1Cc1cnn(C)c1 [Example 72, 4-(8-amino-3-{(2R,5R)-5-methyl-4-[(1-methyl-1H-pyrazol-4-yl)methyl]morpholin-2-yl}imidazo[1,5-a]pyrazin-1-yl)-3-fluoro-N-[4-(trifluoromethyl)pyridin-2-yl]benzamide] | 138 | 1.45
C[C@@H]1CO[C@@H](c2nc(-c3ccc(C(=O)Nc4cc(C(F)(F)F)ccn4)cc3F)c3c(N)nccn23)CN1C1CCOCC1 [Example 73, 4-{8-amino-3-[(2R,5R)-5-methyl-4-(tetrahydro-2H-pyran-4-yl)morpholin-2-yl]imidazo[1,5-a]pyrazin-1-yl}-3-fluoro-N-[4-(trifluoromethyl)pyridin-2-yl]benzamide] | 122 | 2.67
C[C@H]1CO[C@@H](c2nc(-c3ccc(C(=O)Nc4cc(C(F)(F)F)ccn4)cc3F)c3c(N)nccn23)CN1Cc1cnn(C)c1 [Example 74, 4-(8-amino-3-{(2R,5S)-5-methyl-4-[(1-methyl-1H-pyrazol-4-yl)methyl]morpholin-2-yl}imidazo[1,5-a]pyrazin-1-yl)-3-fluoro-N-[4-(trifluoromethyl)pyridin-2-yl]benzamide] | 224 | 0.47
C[C@H]1CO[C@@H](c2nc(-c3ccc(C(=O)Nc4cc(C(F)(F)F)ccn4)cc3F)c3c(N)nccn23)CN1C1CCOCC1 [Example 75, 4-{8-amino-3-[(2R,5S)-5-methyl-4-(tetrahydro-2H-pyran-4-yl)morpholin-2-yl]imidazo[1,5-a]pyrazin-1-yl}-3-fluoro-N-[4-(trifluoromethyl)pyridin-2-yl]benzamide] | 350 | 0.329
C[C@H]1CO[C@@H](c2nc(-c3ccc(C(=O)Nc4cc(C(F)(F)F)ccn4)cc3F)c3c(N)nccn23)CN1C1COC1 [Example 76, 4-{8-amino-3-[(2R,5S)-5-methyl-4-oxetan-3-ylmorpholin-2-yl]imidazo[1,5-a]pyrazin-1-yl}-3-fluoro-N-[4-(trifluoromethyl)pyridin-2-yl]benzamide] | 237 | 0.531
CO[C@H](C)C(=O)N1C[C@H](c2nc(-c3ccc(C(=O)Nc4cc(C(F)(F)F)ccn4)cc3F)c3c(N)nccn23)OC[C@@H]1C [Example 79, 4-(8-amino-3-{(2R,5S)-4-[(2R)-2-methoxypropanoyl]-5-methylmorpholin-2-yl}imidazo[1,5-a]pyrazin-1-yl)-3-fluoro-N-[4-(trifluoromethyl)pyridin-2-yl]benzamide] | 288 | 0.423
C[C@H](O)C(=O)N1C[C@H](c2nc(-c3ccc(C(=O)Nc4cc(C(F)(F)F)ccn4)cc3F)c3c(N)nccn23)OC[C@@H]1C [Example 84, 4-(8-amino-3-{(2R,5S)-4-[(2S)-2-hydroxypropanoyl]-5-methylmorpholin-2-yl}imidazo[1,5-a]pyrazin-1-yl)-3-fluoro-N-[4-(trifluoromethyl)pyridin-2-yl]benzamide] | 360 | 0.368
CC(C)C(=O)N1C[C@H](c2nc(-c3ccc(C(=O)Nc4cc(C(F)(F)F)ccn4)cc3F)c3c(N)nccn23)OC[C@@H]1C [Example 87, 4-{8-amino-3-[(2R,5S)-5-methyl-4-(2-methylpropanoyl)morpholin-2-yl]imidazo[1,5-a]pyrazin-1-yl}-3-fluoro-N-[4-(trifluoromethyl)pyridin-2-yl]benzamide] | 141 | 0.738
C[C@H]1CC[C@@H](c2nc(-c3ccc(C(=O)Nc4cc(C#N)ccn4)cc3)c3c(N)nccn23)CN1C(=O)C1CC1 [Example 89, 4-{8-amino-3-[(3R,6S)-1-(cyclopropylcarbonyl)-6-methylpiperidin-3-yl]imidazo[1,5-a]pyrazin-1-yl}-N-(4-cyanopyridin-2-yl)benzamide] | 47.5 | 0.297

Other lines, results leading:

IC50 [1] [nM] | IC50 [2] [nM] | Compound
139 | 10.9 | C[C@@H]1CO[C@@H](c2nc(-c3ccc(C(=O)Nc4cc(C(F)(F)F)ccn4)cc3F)c3c(N)nccn23)CN1C(=O)C1(C)CC1 [Example 69, 4-(8-amino-3-{(2R,5R)-5-methyl-4-[(1-methylcyclopropyl)carbonyl]morpholin-2-yl}imidazo[1,5-a]pyrazin-1-yl)-3-fluoro-N-[4-(trifluoromethyl)pyridin-2-yl]benzamide]
239 | 0.44 | C[C@H]1CO[C@@H](c2nc(-c3ccc(C(=O)Nc4cc(C(F)(F)F)ccn4)cc3F)c3c(N)nccn23)CN1C(=O)C1(C)COC1 [Example 77, 4-(8-amino-3-{(2R,5S)-5-methyl-4-[(3-methyloxetan-3-yl)carbonyl]morpholin-2-yl}imidazo[1,5-a]pyrazin-1-yl)-3-fluoro-N-[4-(trifluoromethyl)pyridin-2-yl]benzamide]
260 | 0.738 | COCC(=O)N1C[C@H](c2nc(-c3ccc(C(=O)Nc4cc(C(F)(F)F)ccn4)cc3)c3c(N)nccn23)OC[C@@H]1C [Example 78, 4-{8-amino-3-[(2R,5S)-4-(methoxyacetyl)-5-methylmorpholin-2-yl]imidazo[1,5-a]pyrazin-1-yl}-N-[4-(trifluoromethyl)pyridin-2-yl]benzamide]
188 | 0.4 | C[C@H](O)C(=O)N1C[C@H](c2nc(-c3ccc(C(=O)Nc4cc(C(F)(F)F)ccn4)cc3)c3c(N)nccn23)OC[C@@H]1C [Example 80, 4-(8-amino-3-{(2R,5S)-4-[(2S)-2-hydroxypropanoyl]-5-methylmorpholin-2-yl}imidazo[1,5-a]pyrazin-1-yl)-N-[4-(trifluoromethyl)pyridin-2-yl]benzamide]
107 | 0.51 | C[C@H]1CO[C@@H](c2nc(-c3ccc(C(=O)Nc4cc(C(F)(F)F)ccn4)cc3)c3c(N)nccn23)CN1C(=O)C1(C)CC1 [Example 81, 4-(8-amino-3-{(2R,5S)-5-methyl-4-[(1-methylcyclopropyl)carbonyl]morpholin-2-yl}imidazo[1,5-a]pyrazin-1-yl)-N-[4-(trifluoromethyl)pyridin-2-yl]benzamide]
262 | 0.546 | CC(C)C(=O)N1C[C@H](c2nc(-c3ccc(C(=O)Nc4cc(C(F)(F)F)ccn4)cc3)c3c(N)nccn23)OC[C@@H]1C [Example 82, 4-{8-amino-3-[(2R,5S)-5-methyl-4-(2-methylpropanoyl)morpholin-2-yl]imidazo[1,5-a]pyrazin-1-yl}-N-[4-(trifluoromethyl)pyridin-2-yl]benzamide]
188 | 0.363 | CC(=O)N1C[C@H](c2nc(-c3ccc(C(=O)Nc4cc(C(F)(F)F)ccn4)cc3)c3c(N)nccn23)OC[C@@H]1C [Example 83, 4-{3-[(2R,5S)-4-acetyl-5-methylmorpholin-2-yl]-8-aminoimidazo[1,5-a]pyrazin-1-yl}-N-[4-(trifluoromethyl)pyridin-2-yl]benzamide]
189 | 0.548 | C[C@H]1CO[C@@H](c2nc(-c3ccc(C(=O)Nc4cc(C(F)(F)F)ccn4)cc3F)c3c(N)nccn23)CN1C(=O)C1(C)CC1 [Example 85, 4-(8-amino-3-{(2R,5S)-5-methyl-4-[(1-methylcyclopropyl)carbonyl]morpholin-2-yl}imidazo[1,5-a]pyrazin-1-yl)-3-fluoro-N-[4-(trifluoromethyl)pyridin-2-yl]benzamide]
215 | 0.343 | CC(=O)N1C[C@H](c2nc(-c3ccc(C(=O)Nc4cc(C(F)(F)F)ccn4)cc3F)c3c(N)nccn23)OC[C@@H]1C [Example 88, 4-{3-[(2R,5S)-4-acetyl-5-methylmorpholin-2-yl]-8-aminoimidazo[1,5-a]pyrazin-1-yl}-3-fluoro-N-[4-(trifluoromethyl)pyridin-2-yl]benzamide]
